The results in this text go back to patent US11161844B2, “Cyclic substituted imidazo[4,5-c]quinoline derivatives” (Pfizer Inc., priority 2017, dated 2021).

In test [1] the target is LRRK2, WT (GST-tagged truncated LRRK2) (Homo sapiens (Human), UniProt Q5S007). Put plainly: LRRK2 kinase assay (Lantha Screen), wild type. The test is classed as biochemical. The settings on record: 100 nM LRRKtide, 1 mM ATP, 2 μg/mL enzyme; geometric mean of 2-4 determinations unless otherwise indicated. The protocol:
(§1) LRRK2 kinase activity was measured using Lantha Screen technology from Invitrogen. GST-tagged truncated LRRK2 from Invitrogen (Cat #PV4874) was incubated with a fluorescein-labeled peptide substrate based upon ezrin/radixin/moesin (ERM), also known as LRRKtide (Invitrogen cat #PR8976A), in the presence of a dose response of compound. Upon completion, the assay was stopped and detected with a terbium labeled anti-phospho-ERM antibody (Invitrogen, cat #PR8975A). The assay was carried out under the following protocol: The compound dose response was prepared by diluting compound to a top concentration of 0.3 mM in 100% DMSO and serial diluted by half-log in DMSO to give an 11 point curve, 100× final assay concentration. Using Echo acoustic dispensing, 60 nL of compound was transferred to a low volume Corning 384-well assay plate. 3 μL of a working solution of substrate (200 nM LRRKtide, 2 mM ATP) prepared in assay buffer (50 mM HEPES, pH 7.5, 3 mM MgCl2, with 2 mM DTT and 0.01% Brij35 added fresh) was added to the 60 nL compound assay plate. The kinase reaction was started with 3 μL of a working solution of LRRK2 enzyme at a concentration of 4 μg/mL. The final reaction concentrations were 100 nM LRRKtide, 1 mM ATP, 2 μg/mL LRRK2 enzyme and a compound dose response with a top dose of 3 μM. The reaction was allowed to progress at room temperature for 30 minutes and then stopped with the addition of 6 μL of detection buffer (20 mM Tris pH 7.6, 0.01% NP-40, 6 mM EDTA with 2 nM terbium labeled anti-phospho-ERM). After an incubation of 1 hour at room temperature, the plate was read on an Envision with an excitation wavelength of 340 nm and a reading emission at both 520 nm and 495 nm. The ratio of the 520 nm and 495 nm emission was used to analyze the data. Inhibition of mutant G2019S LRRK2 (Invitrogen cat #PV4881) was measured in the exact same method. All final concentrations of substrate ATP and enzyme were the same.

The target in the next test is mutant G2019S LRRK2 (Homo sapiens (Human), UniProt Q5S007, G2019S). In words: LRRK2 kinase assay (Lantha Screen), mutant G2019S. Type of test: biochemical. The settings on record: 100 nM LRRKtide, 1 mM ATP, 2 μg/mL enzyme; single determination unless otherwise indicated. The protocol:
as §1

Sequence of mutant G2019S LRRK2 (Q5S007 970-2527 G2019S): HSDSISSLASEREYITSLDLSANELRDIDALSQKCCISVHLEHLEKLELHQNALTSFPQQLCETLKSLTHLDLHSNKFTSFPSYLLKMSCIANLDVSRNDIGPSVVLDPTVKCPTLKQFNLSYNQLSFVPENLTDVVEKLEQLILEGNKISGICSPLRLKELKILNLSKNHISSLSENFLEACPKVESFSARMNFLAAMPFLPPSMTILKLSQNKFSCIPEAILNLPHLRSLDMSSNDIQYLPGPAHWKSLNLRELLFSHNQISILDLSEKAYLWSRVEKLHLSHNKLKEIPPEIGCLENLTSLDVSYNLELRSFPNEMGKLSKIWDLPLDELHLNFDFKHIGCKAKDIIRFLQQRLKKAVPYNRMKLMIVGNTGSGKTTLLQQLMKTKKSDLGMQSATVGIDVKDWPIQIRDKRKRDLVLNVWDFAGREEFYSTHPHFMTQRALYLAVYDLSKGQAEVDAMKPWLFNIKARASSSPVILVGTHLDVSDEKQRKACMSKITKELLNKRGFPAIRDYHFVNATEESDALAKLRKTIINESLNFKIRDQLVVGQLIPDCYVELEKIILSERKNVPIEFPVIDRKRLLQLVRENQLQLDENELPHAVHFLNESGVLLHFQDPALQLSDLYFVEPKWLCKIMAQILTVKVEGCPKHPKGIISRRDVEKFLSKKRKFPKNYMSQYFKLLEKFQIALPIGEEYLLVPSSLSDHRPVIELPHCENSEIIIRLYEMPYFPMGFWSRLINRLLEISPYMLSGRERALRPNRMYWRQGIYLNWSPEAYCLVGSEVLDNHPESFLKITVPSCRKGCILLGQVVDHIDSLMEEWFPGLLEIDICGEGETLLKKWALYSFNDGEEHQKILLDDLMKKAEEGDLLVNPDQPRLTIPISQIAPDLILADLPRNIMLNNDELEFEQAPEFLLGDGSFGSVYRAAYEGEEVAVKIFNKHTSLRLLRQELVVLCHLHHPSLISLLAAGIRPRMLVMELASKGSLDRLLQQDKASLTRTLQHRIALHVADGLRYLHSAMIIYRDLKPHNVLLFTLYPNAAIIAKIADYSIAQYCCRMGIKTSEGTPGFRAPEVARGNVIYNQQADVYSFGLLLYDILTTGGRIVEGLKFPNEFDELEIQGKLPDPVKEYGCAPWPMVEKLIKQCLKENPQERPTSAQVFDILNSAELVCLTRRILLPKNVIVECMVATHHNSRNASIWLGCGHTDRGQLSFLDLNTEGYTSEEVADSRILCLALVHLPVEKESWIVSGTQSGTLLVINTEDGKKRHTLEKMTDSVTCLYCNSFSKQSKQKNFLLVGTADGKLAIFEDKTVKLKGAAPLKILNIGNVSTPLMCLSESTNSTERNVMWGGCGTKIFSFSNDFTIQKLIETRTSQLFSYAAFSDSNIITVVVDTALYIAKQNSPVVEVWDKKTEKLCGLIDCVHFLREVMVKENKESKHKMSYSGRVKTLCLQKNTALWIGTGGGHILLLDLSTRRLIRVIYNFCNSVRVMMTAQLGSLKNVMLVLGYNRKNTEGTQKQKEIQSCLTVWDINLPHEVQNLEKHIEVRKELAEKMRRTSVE
Sequence of LRRK2, WT (GST-tagged truncated LRRK2) (Q5S007 970-2527): as the sequence (Q5S007 970-2527 G2019S) above, with S1050G counted along it

As for `C[C@@H]1C[C@H](n2c(C3CCC(F)(F)C3)nc3cnc4ccc(Cl)cc4c32)CCO1` (stereo partly drawn) [Example 11, 8-chloro-2-(3,3-difluorocyclopentyl)-1-[(2R,4R)-2-methyltetrahydro-2H-pyran-4-yl]-1H-imidazo[4,5-c]quinoline], the IC50 came out at 20.3 nM in test [1] and 13.8 nM on mutant G2019S LRRK2.
For `C[C@@H]1C[C@H](n2c(C3COC3)nc3cnc4ccc(Cl)cc4c32)CCO1` [Example 12, 8-chloro-1-[(2R,4R)-2-methyltetrahydro-2H-pyran-4-yl]-2-(oxetan-3-yl)-1H-imidazo[4,5-c]quinoline], in that order: 23 nM and 21.2 nM.
The like results for `C[C@@H]1C[C@H](n2c(C3CCC(F)C3)nc3cnc4ccc(C#N)cc4c32)CCO1` (stereo partly drawn) [Example 14, 2-[(cis)-3-fluorocyclopentyl]-1-[(2R,4R)-2-methyltetrahydro-2H-pyran-4-yl]-1H-imidazo[4,5-c]quinoline-8-carbonitrile] were, in that order, 15.2 nM and 10.8 nM.
For `C[C@@H]1C[C@H](n2c3c(cnc4ccc(C#N)cc43)nc2[C@H]2CC[C@@H](F)CC2)CCO1` [Example 15, 2-(cis-4-fluorocyclohexyl)-1-[(2R,4R)-2-methyltetrahydro-2H-pyran-4-yl]-1H-imidazo[4,5-c]quinoline-8-carbonitrile], in that order: 6.75 nM and 8.3 nM.
Consider `C[C@@H]1C[C@H](n2c([C@H]3CCOC3)nc3cnc4ccc(C#N)cc4c32)CCO1` [Example 16, 1-[(2R,4R)-2-methyltetrahydro-2H-pyran-4-yl]-2-[(3R)-tetrahydrofuran-3-yl]-1H-imidazo[4,5-c]quinoline-8-carbonitrile], for which the figures for the IC50 (in test [1]; on mutant G2019S LRRK2) were 16.2 nM and 10.6 nM, respectively.
Regarding `C[C@@H]1C[C@H](n2c(C3CCC(F)(F)CC3)nc3cnc4ccc(C#N)cc4c32)CCO1` [Example 17, 2-(4,4-difluorocyclohexyl)-1-[(2R,4R)-2-methyltetrahydro-2H-pyran-4-yl]-1H-imidazo[4,5-c]quinoline-8-carbonitrile], the values for the IC50 (in test [1]; against mutant G2019S LRRK2) were 15.6 nM and 11.2 nM, respectively.
Turning to `C[C@@H]1C[C@H](n2c3c(cnc4ccc(C#N)cc43)nc2[C@H]2C[C@@](C)(F)C2)CCO1` [Example 18, 2-(cis-3-fluoro-3-methylcyclobutyl)-1-[(2R,4R)-2-methyltetrahydro-2H-pyran-4-yl]-1H-imidazo[4,5-c]quinoline-8-carbonitrile], the figures for the IC50 (in test [1]; against mutant G2019S LRRK2) were 10.4 nM and 8.4 nM, respectively.
On to `C[C@@H]1C[C@H](n2c3c(cnc4ccc(C#N)cc43)nc2[C@H]2C[C@@H](F)C2)CCO1` [Example 19, 2-(cis-3-fluorocyclobutyl)-1-[(2R,4R)-2-methyltetrahydro-2H-pyran-4-yl]-1H-imidazo[4,5-c]quinoline-8-carbonitrile], for which the IC50 was 16.1 nM in test [1] and 12.4 nM on mutant G2019S LRRK2.
For `C[C@@H]1C[C@H](n2c(C3CCCCC3(F)F)nc3cnc4ccc(C#N)cc4c32)CCO1` (stereo partly drawn) [Example 20, 2-(2,2-difluorocyclohexyl)-1-[(2R,4R)-2-methyltetrahydro-2H-pyran-4-yl]-1H-imidazo[4,5-c]quinoline-8-carbonitrile], in that order: 17.7 nM and 10.4 nM.
For `CN1CC[C@@H](n2c3c(cnc4ccc(C#N)cc43)nc2[C@H]2C[C@@](C)(F)C2)C1` [Example 22, 2-(cis-3-fluoro-3-methylcyclobutyl)-1-[(3R)-1-methylpyrrolidin-3-yl]-1H-imidazo[4,5-c]quinoline-8-carbonitrile], in that order: 14.2 nM and 36.5 nM.
For `CN1CC[C@@H](n2c3c(cnc4ccc(C#N)cc43)nc2[C@H]2CC[C@@H](F)CC2)C1` [Example 23, 2-(cis-4-fluorocyclohexyl)-1-[(3R)-1-methylpyrrolidin-3-yl]-1H-imidazo[4,5-c]quinoline-8-carbonitrile], in that order: 10.9 nM and 33 nM.
Take `CN1CC[C@@H](n2c3c(cnc4ccc(C#N)cc43)nc2[C@H]2C[C@@H](F)C2)C1` [Example 24, 2-(cis-3-fluorocyclobutyl)-1-[(3R)-1-methylpyrrolidin-3-yl]-1H-imidazo[4,5-c]quinoline-8-carbonitrile]: the IC50 in test [1] came to 5.27 nM; against mutant G2019S LRRK2, 22.4 nM.
The like results for `CN1CC[C@@H](n2c([C@H]3CCOC3)nc3cnc4ccc(C#N)cc4c32)C1` [Example 25, 1-[(3R)-1-methylpyrrolidin-3-yl]-2-[(3R)-tetrahydrofuran-3-yl]-1H-imidazo[4,5-c]quinoline-8-carbonitrile] were, in that order, 32.5 nM and 80 nM.
For `C[C@@H]1C[C@H](n2c([C@H]3CCOC3)nc3cnc4ccc(C(F)(F)F)cc4c32)CCO1` [Example 26, 1-[(2R,4R)-2-methyltetrahydro-2H-pyran-4-yl]-2-[(3R)-tetrahydrofuran-3-yl]-8-(trifluoromethyl)-1H-imidazo[4,5-c]quinoline], in that order: 9.79 nM and 5.71 nM.
As for `N#CC[C@@H]1C[C@H](n2c3c(cnc4ccc(Cl)cc43)nc2[C@H]2CC[C@@H](F)CC2)CCO1` [Example 28, {(2S,4R)-4-[8-chloro-2-(cis-4-fluorocyclohexyl)-1H-imidazo[4,5-c]quinolin-1-yl]tetrahydro-2H-pyran-2-yl}acetonitrile], the IC50 in test [1] came out at 9.71 nM; against mutant G2019S LRRK2, 5.12 nM.
For the molecule `N#CC[C@@H]1C[C@H](n2c3c(cnc4ccc(F)cc43)nc2[C@H]2CC[C@@H](F)CC2)CCO1` [Example 29, {(2S,4R)-4-[8-fluoro-2-(cis-4-fluorocyclohexyl)-1H-imidazo[4,5-c]quinolin-1-yl]tetrahydro-2H-pyran-2-yl}acetonitrile], the IC50 in test [1] came out at 6.53 nM; against mutant G2019S LRRK2, 4.63 nM.
As to `N#CCC1CC(n2c([C@H]3CCOC3)nc3cnc4ccc(Cl)cc4c32)CCO1` (stereo partly drawn) [Example 30, [cis-4-{8-chloro-2-[(3R)-tetrahydrofuran-3-yl]-1H-imidazo[4,5-c]quinolin-1-yl}tetrahydro-2H-pyran-2-yl]acetonitrile], the IC50 in test [1] is 6.06 nM; at mutant G2019S LRRK2, 3.02 nM.
As for `CN1CC[C@@H](n2c(C3CCC(F)C3)nc3cnc4ccc(C#N)cc4c32)C1` (stereo partly drawn) [Example 32, 2-[cis-3-fluorocyclopentyl]-1-[(3R)-1-methylpyrrolidin-3-yl]-1H-imidazo[4,5-c]quinoline-8-carbonitrile], the IC50 in test [1] was found to be 19.6 nM; against mutant G2019S LRRK2, 37.9 nM.
For `CN1CC[C@@H](n2c(C3CCC(F)C3)nc3cnc4ccc(C#N)cc4c32)C1` (stereo partly drawn) [Example 33, 2-[cis-3-fluorocyclopentyl]-1-[(3R)-1-methylpyrrolidin-3-yl]-1H-imidazo[4,5-c]quinoline-8-carbonitrile], in that order: 6.56 nM and 4.3 nM.
For `CN1CC[C@@H](n2c(C3CCC(F)C3)nc3cnc4ccc(F)cc4c32)C1` (stereo partly drawn) [Example 34, 8-fluoro-2-[cis-3-fluorocyclopentyl]-1-[(3R)-1-methylpyrrolidin-3-yl]-1H-imidazo[4,5-c]quinoline], in that order: 59.6 nM and 77 nM.
As to `CC1(C)CC(n2c(C3CCC(F)C3)nc3cnc4ccc(C#N)cc4c32)CCO1` (stereo not drawn) [Example 39, 1-(2,2-dimethyltetrahydro-2H-pyran-4-yl)-2-(3-fluorocyclopentyl)-1H-imidazo[4,5-c]quinoline-8-carbonitrile], the IC50 was determined as 4.65 nM in test [1] and 4.41 nM on mutant G2019S LRRK2.
Take `CC1(C)CC(n2c(C3CCC(F)C3)nc3cnc4ccc(C#N)cc4c32)CCO1` (stereo not drawn) [Example 40, 1-(2,2-dimethyltetrahydro-2H-pyran-4-yl)-2-(3-fluorocyclopentyl)-1H-imidazo[4,5-c]quinoline-8-carbonitrile]: the IC50 worked out at 7.14 nM in test [1] and 4.33 nM against mutant G2019S LRRK2.
For `CC1(C)CC(n2c(C3CCC(F)C3)nc3cnc4ccc(C#N)cc4c32)CCO1` (stereo not drawn) [Example 41, 1-(2,2-dimethyltetrahydro-2H-pyran-4-yl)-2-(3-fluorocyclopentyl)-1H-imidazo[4,5-c]quinoline-8-carbonitrile], in that order: 64.1 nM and 49.6 nM.
The like results for `CC1(C)CC(n2c(C3CCC(F)C3)nc3cnc4ccc(C#N)cc4c32)CCO1` (stereo not drawn) [Example 42, 1-(2,2-dimethyltetrahydro-2H-pyran-4-yl)-2-(3-fluorocyclopentyl)-1H-imidazo[4,5-c]quinoline-8-carbonitrile] were, in that order, 46.1 nM and 46 nM.
